We go through 11 molecules from ChEMBL document CHEMBL1759998, “Discovery and synthesis of novel 3-phenylcoumarin derivatives as antidepressant agents” (Bioorg Med Chem Lett, 2011).

Molecules are shown by their SMILES. Calls of active or inactive are those of the source. The rule behind the calls is not given here.

Series [1] concerns Mus musculus. Nature of the series: Antidepressant activity in Swiss albino mouse assessed as decrease in immobility duration at 0.5 mg/kg, ip administered 30 mins prior to test measured after 30 mins by tail suspension test (reference value: 79.9%). The series is classed as functional. The arrangement: scale not given: the % may be the effect or the level left. Conditions: route intraperitoneal.

Series [2] in a line: Solubility of the compound. It is filed as physicochemical.
Series [3] has as its system Mus musculus. Nature of the series: Neurotoxicity in Swiss albino mouse assessed as deffect in motor coordination at 1 mg/kg, ip measured for 2 mins by rotarod test. The series is classed as toxicity, organism-based. On the set-up: dose 1 mg/kg, route intraperitoneal. The settings on record: in vivo. In general terms: Falling from the rotarod earlier than controls is read as motor impairment.

Series [4] deals with Mus musculus. Kind of series: Antidepressant activity in Swiss albino mouse assessed as decrease in immobility time at 0.25 mg/kg, ip measured for 6 mins by forced swim test. It is filed as functional, organism-based. The arrangement: dose 0.25 mg/kg.
Series [5] concerns Mus musculus. Nature of the series: Antidepressant activity in Swiss albino mouse assessed as decrease in immobility time at 0.5 mg/kg, ip measured for 6 mins by forced swim test. The arrangement: dose 0.5 mg/kg. It is filed as functional, organism-based.
Series [6] concerns Mus musculus. Nature of the series: Antidepressant activity in Swiss albino mouse assessed as decrease in immobility duration at 30 mg/kg, ip administered 30 mins prior to test measured after 30 mins by tail suspension test (reference value: 79.9%). It is filed as functional. On the set-up: scale not given: the % may be the effect or the level left. The settings on record: route intraperitoneal.

Series [7] has as its system Mus musculus. Kind of series: Antidepressant activity in Swiss albino mouse assessed as decrease in immobility time at 30 mg/kg, ip measured for 6 mins by forced swim test. The series is classed as functional, organism-based. The arrangement: dose 30 mg/kg.

Turning to `CCC(C)c1cc(C=O)cc2cc(-c3cccc(OC)c3)c(=O)oc12` (stereo not given), the Activity with Mus musculus [1] was found to be 70.6%.
As for `COc1ccc(-c2cc3cc(C)c4ccccc4c3oc2=O)cc1OC`, in series [2], the solubility result is recorded as “Insoluble”.
Turning to `COc1ccc(-c2cc3cc(C=O)cc(C)c3oc2=O)cc1OC`, the Activity entry with Mus musculus [3] is “Non-toxic”; in the series with Mus musculus [1] it was 39.1%. Also, the outcome with Mus musculus [4] and with Mus musculus [5] was Active.
With `COc1ccc(-c2cc3cc(C=O)cc(C)c3oc2=O)c(OC)c1OC`, the Activity result in the series with Mus musculus [3] is reported as “Non-toxic”; in the series with Mus musculus [1] it was 47.3%. Moreover, the outcome in the series with Mus musculus [5] was Active.
For the molecule `CCC(C)c1cc(C=O)cc2cc(-c3ccc(OC)c(OC)c3)c(=O)oc12` (stereo not given), the Activity in the series on Mus musculus [1] came out at 72.5%.
Regarding `COc1ccc(-c2cc3cc(C)c4ccccc4c3oc2=O)cc1`, the Activity entry with Mus musculus [3] is “Non-toxic”; with Mus musculus [1], 49.9%. For the same molecule, the result with Mus musculus [4] and with Mus musculus [5] was Active.
In the case of `COc1ccc(-c2cc3cc(C=O)cc(C)c3oc2=O)cc1`, the Activity in the series on Mus musculus [1] was found to be 78.1%.
On to `COc1ccccc1-c1cc2cc(C=O)cc(C)c2oc1=O`, for which the solubility result in series [2] is “Insoluble”.
As to `CN(C)CCCN1c2ccccc2CCc2ccccc21` [IMIPRAMINE], the Activity in the series with Mus musculus [6] was 20.6%. Further, in the series on Mus musculus [7], the result was Active.
On to `CCC(C)c1cc(C=O)cc2cc(-c3ccc(OC)cc3)c(=O)oc12` (stereo not given), for which the Activity with Mus musculus [1] stood at 71.4%.
Same read-out and setting: the value for `COc1ccc(-c2cc3cc(C)c4ccccc4c3oc2=O)c(OC)c1OC` was 63.6%.
